Test results as given in ChEMBL document CHEMBL1201862, “PubChem BioAssay data set” (2004).
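96-well plates; 48 h exposure; 5 concentrations. Endpoints by linear interpolation between flanking doses. Not reached: highest tested concentration assigned. The concentration for 50% growth inhibition is given as GI50.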 Active and inactive are the calls of the source. Rule as the data show it: active = GI50 up to about 1.1 µM and inactive = higher.

Key:
Assay in all cases: NCI-60 cell line screen, 48 h
NCI-H226 = tested on: NCI-H226
NCI-H460 = tested on: NCI-H460
786-0 = tested on: 786-0
COLO 205 = tested on: COLO 205
HL-60 = tested on: HL-60
UO-31 = tested on: UO-31
SK-MEL-5 = tested on: SK-MEL-5
Malme-3M = tested on: Malme-3M
SF-295 = tested on: SF-295
LOX IMVI = tested on: LOX IMVI
CAKI-1 = tested on: CAKI-1
RPMI-8226 = tested on: RPMI-8226
A549 = tested on: A549
SK-OV-3 = tested on: SK-OV-3
SK-MEL-28 = tested on: SK-MEL-28
KM-20L2 = tested on: KM-20L2
HCT-15 = tested on: HCT-15
SK-MEL-2 = tested on: SK-MEL-2
Hs-578T = tested on: Hs-578T

| Structure (SMILES) | GI50 (NCI-H226) | GI50 (NCI-H460) | GI50 (786-0) | GI50 (COLO 205) | GI50 (HL-60) | GI50 (UO-31) | GI50 (SK-MEL-5) | GI50 (Malme-3M) | GI50 (SF-295) | GI50 (LOX IMVI) | GI50 (CAKI-1) | GI50 (RPMI-8226) | GI50 (A549) | GI50 (SK-OV-3) | GI50 (SK-MEL-28) | GI50 (KM-20L2) | GI50 (HCT-15) | GI50 (SK-MEL-2) | GI50 (Hs-578T) |
| --- | --- | --- | --- | --- | --- | --- | --- | --- | --- | --- | --- | --- | --- | --- | --- | --- | --- | --- | --- |
| C/C=C(\C)C(=O)N1c2ccccc2CC1c1c(C)[nH]c2ccccc12 (configuration not stated) | > 100 µM (inactive) | 37.9 µM (inactive) | > 100 µM (inactive) | 23.3 µM (inactive) | 15.1 µM (inactive) | 36.1 µM (inactive) | > 10 µM (inactive) | 32 µM (inactive) | 40 µM (inactive) | > 100 µM (inactive) | 48.8 µM (inactive) | 25.3 µM (inactive) | > 100 µM (inactive) | > 100 µM (inactive) | > 100 µM (inactive) | 47.4 µM (inactive) | 37 µM | 19.3 µM (inactive) | – |
| C[C@]12CC[C@H](O)CC1=CC[C@@H]1C2CC[C@]2(C)C(=O)N(N)C(=O)CC12 (some centres not stated) | > 100 µM (inactive) | > 100 µM (inactive) | > 100 µM (inactive) | > 100 µM (inactive) | > 100 µM (inactive) | > 100 µM (inactive) | > 100 µM (inactive) | > 100 µM (inactive) | > 100 µM (inactive) | > 100 µM (inactive) | > 100 µM (inactive) | > 100 µM (inactive) | > 100 µM (inactive) | > 100 µM (inactive) | > 100 µM (inactive) | > 100 µM (inactive) | > 100 µM | > 100 µM (inactive) | – |
| N/C(=C\c1ccc(OCc2ccccc2)c(OCc2ccccc2)c1[N+](=O)[O-])C(=O)O | > 100 µM (inactive) | – | > 100 µM (inactive) | > 100 µM (inactive) | > 100 µM (inactive) | > 100 µM (inactive) | > 100 µM (inactive) | > 100 µM (inactive) | > 100 µM (inactive) | > 100 µM (inactive) | – | > 100 µM (inactive) | > 100 µM (inactive) | > 100 µM (inactive) | > 100 µM (inactive) | > 100 µM (inactive) | – | > 100 µM (inactive) | – |
| CCCCN(CCCC)CC(C(=O)Nc1ccc([N+](=O)[O-])cc1[N+](=O)[O-])/C(C)=N\NC(=S)NN (configuration not stated) | > 100 µM (inactive) | > 100 µM (inactive) | > 100 µM (inactive) | > 100 µM (inactive) | 46 µM (inactive) | 26.9 µM (inactive) | > 100 µM (inactive) | > 100 µM (inactive) | > 100 µM (inactive) | > 100 µM (inactive) | – | 50.1 µM (inactive) | > 100 µM (inactive) | > 100 µM (inactive) | > 100 µM (inactive) | > 100 µM (inactive) | – | > 100 µM (inactive) | – |
| O=C1/C(=C/c2ccc3c(c2)OCO3)CCC1CN1CCOCC1 (configuration not stated) | 16.7 µM (inactive) | 17.4 µM (inactive) | 5.42 µM (inactive) | 9.73 µM (inactive) | 1.44 µM (inactive) | 15.8 µM (inactive) | 9.16 µM (inactive) | 7.31 µM (inactive) | 18.2 µM (inactive) | 2.44 µM (inactive) | 3.25 µM (inactive) | 0.436 µM (active) | 20.9 µM (inactive) | 18.4 µM (inactive) | 3.4 µM (inactive) | 14.8 µM (inactive) | 2.94 µM | 12 µM (inactive) | 3.84 µM (inactive) |
| COC(=O)CC(C(C(=O)OC)C(=O)OC)N1C(=O)OC(c2ccccc2)C1c1ccccc1 (configuration not stated) | > 100 µM (inactive) | 94.2 µM (inactive) | > 100 µM (inactive) | 86.9 µM (inactive) | 37 µM (inactive) | > 100 µM (inactive) | > 100 µM (inactive) | > 100 µM (inactive) | > 100 µM (inactive) | 38.9 µM (inactive) | 19.3 µM (inactive) | 45.6 µM (inactive) | > 100 µM (inactive) | > 100 µM (inactive) | > 100 µM (inactive) | > 100 µM (inactive) | 53.6 µM | > 100 µM (inactive) | – |
| CC1=C(N(C)C)C(=O)c2nc3n(c2C1=O)CCC3OC(N)=O (configuration not stated) | 19.4 µM (inactive) | 15.6 µM (inactive) | 17.1 µM (inactive) | 18 µM (inactive) | 10.4 µM (inactive) | 17.3 µM (inactive) | 11.5 µM (inactive) | 11.2 µM (inactive) | 15.2 µM (inactive) | 10.9 µM (inactive) | 18.5 µM (inactive) | 16.9 µM (inactive) | 18.8 µM (inactive) | 15.2 µM (inactive) | 20.2 µM (inactive) | 20.2 µM (inactive) | 14.5 µM | 15.6 µM (inactive) | – |
